The melting point is the temperature of the solid-liquid transition.

The values that follow come from a melting point compilation (Tetko et al.; mined from patent text by program, amines drawn as free bases though some values may be those of a salt).

Residues, ends and D or L forms follow the SMILES beside them. *: point of attachment. For = O=C* Bounds are passed on as bounds.

Turning to `CC(=O)NC(C)(C)Cc1ccc2c(c1)CCC2`, the melting point is 130 to 131 °C. In the case of `COCOc1c(-c2ccccc2)sc2cnccc12` it was 55 to 56 °C; in that of `O=[N+]([O-])c1ccc(C(O)C(CO)N2CCC(Cc3ccccc3)CC2)cc1` (stereo unspecified), 122 to 124 °C. In the case of `Cc1ccc2oc(=O)c(NC(=O)Nc3ccc(F)cc3F)c(-c3ccccc3C)c2c1` it was 213 to 214 °C; in that of `COc1ccc(Cl)cc1C(=N)Nc1ccc(F)c(NC(=O)/C=C/c2ccccc2Cl)c1`, 229 to 230 °C; in that of `N#Cc1cn(-c2ccc(Cl)cc2)c(=O)[nH]c1=O`, 236 to 239 °C. As to `CCOC(=O)C(=Cc1ccc(OC)c(O)c1)C(=O)OCC`, the melting point was in the range of 81 to 83 °C. The compound `CCOC(=O)CN(CP(=O)(ONN(C)C)ONN(C)C)C(=O)C(F)(F)F` registered a melting point of 84.5 to 87.5 °C. As for `COc1ccc(C(=O)O)c2cc(C3CCCC3)oc12`, the figure is 170 to 171 °C.

The compound `COc1cccc2c1C[C@H]1C[C@@H](CN3CCC(NC(=O)C(c4ccccc4)c4ccccc4)CC3)CN(C)[C@@H]1C2` registered a melting point of 219 to 222 °C. As for `NC1=NN(c2ccccn2)C(c2ccccc2)C1` (stereo unspecified), the figure is 203 to 206 °C; as for `CN1C(=O)[C@H](NC(=O)CCc2cccc(C#N)c2)N=C(c2ccccc2)c2ccccc21`, 110 to 112 °C. As for `CC(=O)C1CCC2C3CCC4CC(O)C(N5CC(C)(C)OC(C)(C)C5)CC4(C)C3C(=O)CC12C` (stereo unspecified), the figure is 212 to 215 °C; as for `COc1ccc(S(=O)(=O)C(Cc2cccnc2)(CC(C)C)C(=O)NO)cc1` (stereo unspecified), 78 °C.

As to `O=c1[nH]c(=Cc2ccc3ccccc3n2)c(=O)[nH]c1=Cc1ccc(Cl)cc1`, the melting point is 348 to 349 °C. In the case of `CCOC(=O)C(=NO)c1c[nH]c2c(CC)cccc12` it was 167 to 169 °C; in that of `Cn1ncc(NCCCN2CCC(c3noc4cc(F)ccc34)CC2)c(Cl)c1=O`, 200 to 202 °C.

Take `CS(=O)(=O)N1CCC(N)CC1`: the melting point lay within 65.3 to 65.7 °C. As for `CN1C(=O)C(S)=C(S)C1=O`, the figure is 145 to 148 °C; as for `C1CCC(C2CNCCNCCNCCNCCN2)CC1` (stereo unspecified), 67 to 69.5 °C; as for `COC(=O)c1[nH]c2c(C)ccc(C)c2c1C(N)=O`, 201 to 202 °C. As for `Cc1cc(SC2=C(O)CC(C3CCCC3)(C3CCCC3)OC2=O)c(C(C)(C)C)cc1NS(=O)(=O)c1ccc(C(F)(F)F)cn1`, the figure is 127 to 129 °C. With `COc1ccc(NC(=S)C2CC2)cn1`, the melting point lay within 79 to 83 °C. The compound `CN(C)C(=S)C1(c2ccccn2)CCCS1` (stereo unspecified) had a melting point of 100 °C. Regarding `Fc1ccc([C@H]2CC[C@H](NCc3ccn4c(CC5CC5)nnc4c3C(F)(F)F)CC2)c(F)c1`, the melting point was found to be 110 °C. Compound `Clc1ccc(-c2cccs2)cn1` returned a melting point of 124 to 126 °C. As for `Cc1cc(=O)[nH]c2cc(OCCCN3CCC(NC(=O)c4ccccc4)CC3)ccc12`, the figure is 275 to 276 °C; as for `O=c1[nH]c2cc(Cl)ccc2c(O)c1Sc1ccccc1`, over 300 °C. As for `CCc1nc(=O)n(C)c2sccc12`, the figure is 156 °C. As for `COC(=O)C(Cc1ccccc1)NC(=O)C(CC(=O)O)NC=O` (stereo not drawn) (For-Asp-Phe-OMe; configuration not given here), the melting point is 124 °C. The compound `BrCc1ccc(C=Cc2ccccc2)cc1` displayed a melting point of 125 to 127 °C. As for `CCCCNC(=O)[C@@H](C[C@H](O)[C@@H](N)CC1CCCCC1)C(C)C`, the melting point was in the range of 88.5 to 90 °C. As for `O=C1N(CC2CCCO2)c2ccccc2C12COc1cc(O)ccc12` (stereo unspecified), the figure is 72 to 74 °C.

For `Cc1ccsc1C(=COCCN1CCC[C@@H](C(=O)O)C1)c1sccc1C`, the melting point is 55 to 70 °C. As for `Cn1cnc2cc(NC(=O)c3cc4cc(F)cnc4n3Cc3cccc(F)c3)ccc21`, the figure is 266 to 268 °C. As for `O=C1C2CCCC2=Nc2ccccc2N1Cc1cccc([N+](=O)[O-])c1` (stereo unspecified), the figure is 124 to 126 °C.
